From US8642620B2, “Heteroaryl-substituted amides comprising an unsaturated or cyclic linker group, and their use as pharmaceuticals” (Sanofi, priority 2005, dated 2014)
Structures can show the parent of a compound that is named as a salt.

Key:
[1] = system: eNOS promoter; assay: Activation of eNOS transcription (eNOS promoter-luciferase reporter gene assay); assay type: cell-based; details: human endothelial cell line stably transfected with eNOS promoter-luciferase construct; 18 h incubation; EC50 determined graphically; read-out: EC50 values of transcription induction ratios (TIR)
Protocol: Activation of eNOS transcription was measured as described in detail by Li et al., “Activation of protein kinase C alpha and/or epsilon enhances transcription of the human endothelial nitric oxide synthase gene”, Mol. Pharmacol. 53 (1998) 630. Briefly, a 3.5 kB long fragment 5′ of the starting codon of the eNOS gene was cloned, sequenced and cloned in firefly luciferase expression plasmids to monitor activation of the eNOS promoter by reporter gene activity. A human endothelial cell line stable transfected and expressing this promoter-reporter construct was used for compound testing. Cells were incubated for 18 h with the compounds.
All compounds were dissolved in sterile dimethyl sulfoxide (DMSO). A final concentration of 0.5% DMSO in complete medium was allowed. Induction of reporter gene expression in these cells was measured using a standard luciferase assay system (Promega, Cat. No. E150) according to the manufacturer's instructions. Luciferase induction in cells incubated with compounds were compared to those incubated with solvent alone. The ratio of both activities (transcription induction ratio, TIR) was plotted as a function of compound concentration. Typically, TIR values started at low concentrations at a ratio of 1, indicating no compound effect, and extended up to a maximum TIR value TIR(max) which indicates the increase of the eNOS transcription. EC50 values of transcription induction ratios as a function of compound concentration were determined graphically.

SMILES: O=C1CNC(=O)N1C1CC1c1ccc(-c2ccc(F)c(Cl)c2)nc1 (racemic) [Example 21, 3-((E)-2-(6-(3-Chloro-4-fluorophenyl)pyridin-3-yl)cyclopropyl)imidazolidine-2,4-dione]
- melting point: 172 °C
- EC50 [1]: < 500 nM

SMILES: O=C1CCCC(=O)N1CC#Cc1ccc(-c2ccccc2F)nc1 [Example 2, 1-(3-(6-(2-Fluorophenyl)pyridin-3-yl)prop-2-ynyl)piperidine-2,6-dione trifluoroacetic acid salt]
- EC50 [1]: 500 to 5000 nM

SMILES: O=c1ccccn1C/C=C/c1nc(-c2ccc(F)cc2)cs1 [Example 3, 1-(3-(4-(4-Fluorophenyl)thiazol-2-yl)allyl)-1H-pyridin-2-one]
- EC50 [1]: 500 to 5000 nM

SMILES: CC1(C)NC(=O)N(C/C=C/c2ccc(-c3ccc(F)cc3)nc2)C1=O [Example 11, 3-(3-(6-(4-Fluorophenyl)pyridin-3-yl)allyl)-5,5-dimethylimidazolidine-2,4-dione trifluoroacetic acid salt]
- EC50 [1]: 500 to 5000 nM
